Data as given in ChEMBL document CHEMBL4190379 (Bioorg Med Chem Lett, 2018).

Experiments:
[1] = molecular target: T1, Bromodomain-containing protein 4 (Homo sapiens, UniProt O60885); assay: Binding affinity to BRD4 in human H1299 cells stably expressing E2 and HPV16-LCR luciferase reporter incubated for 24 hrs by Bright-Glo luciferase reporter gene assay based BRD4 engagement assay; assay type: cell-based
[2] = molecular target: T1, Bromodomain-containing protein 4; assay: Binding affinity to His-tagged BRD4 bromodomain 1 to 2 (K57 to K550 amino acids) (unknown origin) using Alexa647-labeled BET-inhibitor as fluorescent probe by bromodomain TR-FRET binding assay; assay type: single protein
MX1 = assay: Antiproliferative activity against human MX1 cells incubated for 72 hrs by cell-titer Glo assay; assay type: functional, cell-based; details: MX1, 72 h
[3] = Permeability of the compound by PAMPA method; assay type: ADME; details: read-out: permeability
Mus musculus = assay: Unbound clearance in mouse at 10 mg/kg, po; assay type: ADME, organism-based; details: in vivo
[4] = Intrinsic unbound clearance in mouse liver microsomes; assay type: ADME, microsome
[5] = Oral bioavailability in mouse at 10 mg/kg; assay type: ADME, organism-based; details: in vivo
[6] = AUC in mouse at 10 mg/kg, po; assay type: ADME, organism-based; details: in vivo
[7] = Intrinsic unbound clearance in human liver microsomes; assay type: ADME, microsome

Row | Compound | IC50 [1] | Ki [2] | Papp [3] | CL free (Mus musculus) | CL free [4] | bioavailability [5] | AUC [6] | CL free [7] | EC50 (MX1)
1 | Cn1cc(-c2ccccc2NCC2CC2)c2cc[nH]c2c1=O |  |  |  |  |  |  |  |  | 1.4 µM
2 | Cn1cc2c3c(c[nH]c(=O)c31)-c1cc(CS(C)(=O)=O)ccc1N(c1ccc(F)cc1F)C2 | 0.0065 µM | 0.0027 µM |  |  |  |  |  |  | 0.004 µM
3 | Cn1cc2c3c(c[nH]c3c1=O)CN(C(=O)C1CC1)c1ccc(CS(C)(=O)=O)cc1-2 | 0.021 µM | 0.0071 µM |  |  |  |  |  |  | 0.0078 µM
4 | Cn1cc2c3c(c[nH]c(=O)c31)-c1cc(CS(C)(=O)=O)ccc1N(c1ccccn1)C2 | 0.0023 µM | 0.0029 µM | 5.9 ×10⁻⁶ cm/s |  | 140 mL/min/kg |  | 1.2 µM·h | 65 mL/min/kg | 0.0055 µM
5 | Cn1cc2c3c(c[nH]c3c1=O)CN(C1CCC(F)(F)CC1)c1ccc(CS(C)(=O)=O)cc1-2 | 0.0037 µM | 0.0047 µM | 7.3 ×10⁻⁶ cm/s | 4830 mL/min/kg | 267 mL/min/kg | 48% | 0.13 µM·h | 67 mL/min/kg | 0.0014 µM
6 | CCS(=O)(=O)Nc1ccc2c(c1)-c1c[nH]c(=O)c3c1c(cn3C)CN2c1ccccn1 | 0.018 µM | 0.0027 µM |  |  |  |  |  |  | 0.0049 µM
7 | CCS(=O)(=O)Nc1cnc2c(c1)-c1cn(C)c(=O)c3[nH]cc(c13)CN2c1ccc(F)cc1F | 0.0041 µM | 0.0041 µM |  |  |  |  |  |  | 0.007 µM
8 | Cn1cc2c3c(c[nH]c(=O)c31)CN(CC1CC1)c1ccccc1-2 | 0.095 µM | 0.043 µM |  |  |  |  |  |  | 0.057 µM
9 | Cn1cc2c3c(c[nH]c3c1=O)CN(CC1CC1)c1ccc(CS(C)(=O)=O)cc1-2 | 0.0046 µM | 0.0084 µM | 4.3 ×10⁻⁶ cm/s | 450 mL/min/kg | 300 mL/min/kg | 8.2% | 0.16 µM·h | 183 mL/min/kg | 0.002 µM
10 | CCS(=O)(=O)Nc1cnc2c(c1)-c1c[nH]c(=O)c3c1c(cn3C)CN2c1ccc(F)cc1F | 0.032 µM | 0.0044 µM |  |  |  |  |  |  | 0.018 µM
11 | Cn1cc(-c2cc(CS(C)(=O)=O)ccc2NCC2CC2)c2cc[nH]c2c1=O |  |  |  |  |  |  |  |  | 0.043 µM
12 | Cn1cc2c3c(c[nH]c(=O)c31)-c1cc(CS(C)(=O)=O)ccc1N(C(=O)C1CC1)C2 | 0.031 µM | 0.0077 µM |  |  |  |  |  |  | 0.016 µM
13 | Cn1cc(-c2cc(S(C)(=O)=O)ccc2NCC2CC2)c2cc[nH]c2c1=O |  |  |  |  |  |  |  |  | 0.017 µM
14 | Cn1cc(-c2cc(CS(C)(=O)=O)ccc2NCC2CC2)c2cc[nH]c(=O)c21 | 0.2 µM | 0.22 µM |  |  |  |  |  |  | 0.14 µM
15 | CCS(=O)(=O)Nc1ccc2c(c1)-c1c[nH]c(=O)c3c1c(cn3C)CN2c1ccc(F)cc1 | 0.0043 µM | 0.0048 µM |  |  |  |  |  |  | 0.0056 µM
16 | Cn1cc2c3c(c[nH]c3c1=O)CN(c1ccc(F)cc1)c1ccc(CS(C)(=O)=O)cc1-2 | 0.0015 µM | 0.00087 µM | 6.6 ×10⁻⁶ cm/s | 5170 mL/min/kg | 1400 mL/min/kg | 23% | 0.67 µM·h | < 41.7 mL/min/kg | 0.00072 µM

Continued by falling IC50 [1], values first:

Row | IC50 [1] | Ki [2] | Papp [3] | CL free (Mus musculus) | CL free [4] | bioavailability [5] | AUC [6] | CL free [7] | Compound | EC50 (MX1)
17 | 5 µM | 1.5 µM |  |  |  |  |  |  | Cn1cc(-c2ccccc2NCC2CC2)c2cc[nH]c(=O)c21 | 3.3 µM
18 | 0.19 µM | 0.18 µM |  |  |  |  |  |  | Cn1cc2c3c(c[nH]c(=O)c31)CN(CC1CC1)c1ccc(S(C)(=O)=O)cc1-2 | 0.14 µM
19 | 0.15 µM | 0.08 µM |  |  |  |  |  |  | Cn1cc(-c2cc(S(C)(=O)=O)ccc2NCC2CC2)c2cc[nH]c(=O)c21 | 0.14 µM
20 | 0.048 µM | 0.017 µM |  |  |  |  |  |  | COC(=O)N1Cc2cn(C)c3c(=O)[nH]cc(c23)-c2cc(CS(C)(=O)=O)ccc21 | 0.078 µM
21 | 0.028 µM | 0.026 µM |  |  |  |  |  |  | Cn1cc2c3c(c[nH]c3c1=O)CN(CC1CC1)c1ccc(S(C)(=O)=O)cc1-2 | 0.015 µM
22 | 0.023 µM | 0.012 µM | 2.5 ×10⁻⁶ cm/s | 733 mL/min/kg | < 130 mL/min/kg | 23% | 0.64 µM·h | < 45 mL/min/kg | Cn1cc2c3c(c[nH]c(=O)c31)CN(CC1CC1)c1ccc(CS(C)(=O)=O)cc1-2 | 0.019 µM
23 | 0.023 µM | 0.016 µM |  |  |  |  |  |  | Cn1cc2c3c(c[nH]c3c1=O)CN(CC1CC1)c1ccccc1-2 | 0.0073 µM
24 | 0.02 µM |  |  |  |  |  |  |  | CCS(=O)(=O)Nc1ccc(Oc2ccc(F)cc2F)c(-c2cn(C)c(=O)c3[nH]ccc23)c1 [MIVEBRESIB] | 
25 | 0.009 µM | 0.0073 µM |  |  |  |  |  |  | CCC(=O)N1Cc2c[nH]c3c(=O)n(C)cc(c23)-c2cc(CS(C)(=O)=O)ccc21 | 0.0047 µM
